Assays:
JAK2 = JAK2 (Homo sapiens (Human), UniProt O60674); assay: JAK2 radioactive kinase assay; format: biochemical; details: ATP 10 μM
Procedure, shortened: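 Radiometric assay in Hepes pH 7.5, MgCl2, EGTA, Brij35, BSA, DTT, 1% DMSO, with 10 μM [33P]ATP, 120 min at room temp; P81 paper capture and counting. […]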

TYK2 = TYK2 (Homo sapiens (Human), UniProt P29597); assay: Tyk2 radioactive kinase assay; format: biochemical; details: ATP 10 μM
Procedure, shortened: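 Recombinant human TYK2 (Invitrogen) was mixed with 20 μM peptide substrate in a buffer of 20 mM Hepes pH 7.5, 10 mM MgCl2, 1 mM EGTA, 0.02% Brij35, 0.02 mg/mL BSA, 0.1 mM […], 2 mM DTT and 1% DMSO, and compounds in DMSO were added. Adding ^33P-ATP (10 μM ATP) started the reaction, which ran 120 min at room temperature. Mixtures were then spotted onto P81 ion-exchange paper, washed thoroughly in 0.75% phosphoric acid, and counted for radioactivity.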

[1] = system: JAK2-pSTAT5 (GM-CSF induced pSTAT5); assay: GM-CSF induced pSTAT5 in human PBMC; format: cell-based; details: 5 ng/mL GM-CSF
Experimental: Human PBMC are isolated from buffy coat and are stored frozen for assays as needed. Cells for assay are thawed and resuspended in complete media containing serum, then cells are diluted to 1.67 E6 cells/ml so that 120 ul per well is 200,000 cells. 15 ul of compound or DMSO is added to the well at the desired concentrations and incubated at 1 hr at 37 C. 15 ul of stimulus (final concentration of 1.7 ng/mL IL-12) is added for 30 minutes prior to pSTAT4 and total STAT4 analysis using cell lysates prepared and analyzed by MSD reagents as per manufacturer protocol. The final DMSO concentration of compound in the assay is 0.1%.
Cells are prepared for analysis as in the above procedure and 15 ul of GM-CSF (final concentration 5 ng/mL) is added for 20 minutes prior to pSTAT5 and total STAT5 analysis using cell lysates prepared and analyzed by MSD reagents as per manufacturer protocol. The final DMSO concentration of compound in the assay is 0.1%.

[2] = system: Tyk2-pSTAT4 (IL-12 induced pSTAT4); assay: IL-12 induced pSTAT4 in human PBMC; format: cell-based; details: 1.7 ng/mL IL-12, 30 minutes
Procedure, shortened: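 pSTAT4 and total STAT4 quantified by MSD in cell lysates after 30 minutes of 1.7 ng/mL IL-12 stimulation. Beforehand, compound (0.1% DMSO final) sat 1 hr at 37 C on 200,000 thawed buffy-coat PBMC per well in serum-containing medium.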

JAK2, sequence (O60674 whole entry): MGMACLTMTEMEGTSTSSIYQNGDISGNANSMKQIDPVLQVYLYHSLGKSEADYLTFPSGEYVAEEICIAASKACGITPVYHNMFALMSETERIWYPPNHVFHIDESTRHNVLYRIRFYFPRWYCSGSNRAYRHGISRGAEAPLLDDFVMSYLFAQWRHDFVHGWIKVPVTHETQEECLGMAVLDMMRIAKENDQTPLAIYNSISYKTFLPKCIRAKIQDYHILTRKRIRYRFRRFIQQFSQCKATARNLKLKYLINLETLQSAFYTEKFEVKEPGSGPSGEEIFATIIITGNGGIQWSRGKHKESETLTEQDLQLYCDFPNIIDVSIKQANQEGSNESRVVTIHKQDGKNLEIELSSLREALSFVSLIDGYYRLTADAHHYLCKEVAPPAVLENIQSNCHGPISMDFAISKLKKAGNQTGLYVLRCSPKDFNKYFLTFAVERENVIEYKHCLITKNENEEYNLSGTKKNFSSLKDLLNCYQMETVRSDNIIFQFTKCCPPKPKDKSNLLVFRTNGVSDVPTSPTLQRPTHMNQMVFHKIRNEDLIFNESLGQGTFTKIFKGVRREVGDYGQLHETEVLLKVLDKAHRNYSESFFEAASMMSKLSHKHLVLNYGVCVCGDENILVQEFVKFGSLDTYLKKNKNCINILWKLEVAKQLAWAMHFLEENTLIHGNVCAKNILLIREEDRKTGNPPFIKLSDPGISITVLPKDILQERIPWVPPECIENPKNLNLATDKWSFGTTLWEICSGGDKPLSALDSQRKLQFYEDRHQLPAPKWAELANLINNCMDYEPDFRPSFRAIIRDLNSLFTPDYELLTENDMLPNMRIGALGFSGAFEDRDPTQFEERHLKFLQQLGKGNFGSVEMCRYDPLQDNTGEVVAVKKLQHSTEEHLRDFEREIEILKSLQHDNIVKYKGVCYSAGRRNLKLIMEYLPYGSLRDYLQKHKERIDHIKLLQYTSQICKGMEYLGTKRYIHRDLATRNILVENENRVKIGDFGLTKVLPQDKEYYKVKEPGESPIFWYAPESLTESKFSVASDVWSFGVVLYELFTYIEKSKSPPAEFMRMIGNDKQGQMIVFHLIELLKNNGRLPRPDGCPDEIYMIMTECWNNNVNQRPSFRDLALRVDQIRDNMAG
TYK2, sequence (P29597 whole entry): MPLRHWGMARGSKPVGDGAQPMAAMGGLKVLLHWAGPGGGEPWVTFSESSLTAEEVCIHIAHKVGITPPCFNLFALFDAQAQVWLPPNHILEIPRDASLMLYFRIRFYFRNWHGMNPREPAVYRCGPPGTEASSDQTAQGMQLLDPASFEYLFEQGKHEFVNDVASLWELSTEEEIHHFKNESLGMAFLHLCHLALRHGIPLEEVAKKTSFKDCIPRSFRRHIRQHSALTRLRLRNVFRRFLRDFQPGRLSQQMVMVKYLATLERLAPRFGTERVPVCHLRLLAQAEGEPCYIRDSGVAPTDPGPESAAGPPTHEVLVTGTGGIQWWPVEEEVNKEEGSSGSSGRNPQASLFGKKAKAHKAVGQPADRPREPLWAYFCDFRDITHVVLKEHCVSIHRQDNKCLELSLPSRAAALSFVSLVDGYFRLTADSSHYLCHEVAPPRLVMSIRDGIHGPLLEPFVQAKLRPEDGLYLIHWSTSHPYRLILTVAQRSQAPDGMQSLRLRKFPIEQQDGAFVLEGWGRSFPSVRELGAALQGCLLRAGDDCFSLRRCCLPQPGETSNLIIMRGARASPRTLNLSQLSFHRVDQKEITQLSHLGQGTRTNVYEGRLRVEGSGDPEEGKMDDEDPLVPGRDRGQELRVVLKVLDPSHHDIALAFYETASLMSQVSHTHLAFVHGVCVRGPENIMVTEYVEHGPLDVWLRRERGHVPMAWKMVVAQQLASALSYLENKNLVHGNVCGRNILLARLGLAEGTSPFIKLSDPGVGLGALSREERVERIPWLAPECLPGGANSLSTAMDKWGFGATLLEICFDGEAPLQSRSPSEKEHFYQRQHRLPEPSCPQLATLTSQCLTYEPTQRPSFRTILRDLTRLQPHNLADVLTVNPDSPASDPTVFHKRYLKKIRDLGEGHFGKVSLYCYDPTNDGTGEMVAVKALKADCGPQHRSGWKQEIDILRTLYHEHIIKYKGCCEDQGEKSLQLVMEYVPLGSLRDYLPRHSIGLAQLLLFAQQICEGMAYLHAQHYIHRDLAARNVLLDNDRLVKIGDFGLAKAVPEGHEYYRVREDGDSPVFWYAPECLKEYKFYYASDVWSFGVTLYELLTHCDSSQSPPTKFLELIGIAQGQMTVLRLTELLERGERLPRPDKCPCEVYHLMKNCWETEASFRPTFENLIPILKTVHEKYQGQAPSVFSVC

Row | Ki (JAK2) [nM] | Ki (TYK2) [nM] | EC50 ([1]; Homo sapiens, PBMC, 20 min) [nM] | EC50 ([2]; Homo sapiens, PBMC, 0.5 h) [nM] | Compound | EC50 ([1]; 20 minutes) [nM] | EC50 [2] [nM] | EC50 ([1]; 20 min) [nM] | EC50 ([2]; 0.5 h) [nM]
1 | 10 to 100 | 0.1 to 10 | 100 to 2000 | 100 to 2000 | N#Cc1cccc(F)c1-c1cc(-n2ccc(N3CCC(O)CC3)n2)c2c(n1)CNC2=O [I-56, 3-fluoro-2-(4-(3-(4-hydroxypiperidin-1-yl)-1H-pyrazol-1-yl)-5-oxo-6,7-dihydro-5H-pyrrolo[3,4-b]pyridin-2-yl)benzonitrile] | – | – | – | –
2 | 10 to 100 | 0.009 to 0.1 | 100 to 2000 | 100 to 2000 | CC1(O)CCCN(c2ccn(-c3cc(-c4c(F)cccc4C#N)nc4c3C(=O)NC4)n2)C1 (stereo not drawn) [I-62, 3-fluoro-2-(4-(3-(3-hydroxy-3-methylpiperidin-1-yl)-1H-pyrazol-1-yl)-5-oxo-6,7-dihydro-5H-pyrrolo[3,4-b]pyridin-2-yl)benzonitrile] | – | – | – | –
3 | 10 to 100 | 0.1 to 10 | 100 to 2000 | 100 to 2000 | N#Cc1cccc(F)c1-c1cc(-n2ccc(N3CCC[C@@H](O)C3)n2)c2c(n1)CNC2=O [I-69, (R)-3-fluoro-2-(4-(3-(3-hydroxypiperidin-1-yl)-1H-pyrazol-1-yl)-5-oxo-6,7-dihydro-5H-pyrrolo[3,4-b]pyridin-2-yl)benzonitrile] | – | – | – | –
4 | 0.1 to 10 | 0.1 to 10 | 100 to 2000 | 100 to 2000 | N#Cc1cccc(F)c1-c1cc(-n2ccc(N3CCC[C@H](O)C3)n2)c2c(n1)CNC2=O [I-70, (S)-3-fluoro-2-(4-(3-(3-hydroxypiperidin-1-yl)-1H-pyrazol-1-yl)-5-oxo-6,7-dihydro-5H-pyrrolo[3,4-b]pyridin-2-yl)benzonitrile] | – | – | – | –
5 | 10 to 100 | 0.009 to 0.1 | 100 to 2000 | 30 to 100 | C[C@@]1(O)CCCN(c2ccn(-c3cc(-c4c(F)cccc4C#N)nc4c3C(=O)NC4)n2)C1 [I-71, (R)-3-fluoro-2-(4-(3-(3-hydroxy-3-methylpiperidin-1-yl)-1H-pyrazol-1-yl)-5-oxo-6,7-dihydro-5H-pyrrolo[3,4-b]pyridin-2-yl)benzonitrile] | – | – | – | –
6 | 0.1 to 10 | 0.1 to 10 | > 2000 | 100 to 2000 | C[C@]1(O)CCCN(c2ccn(-c3cc(-c4c(F)cccc4C#N)nc4c3C(=O)NC4)n2)C1 [I-72, (S)-3-fluoro-2-(4-(3-(3-hydroxy-3-methylpiperidin-1-yl)-1H-pyrazol-1-yl)-5-oxo-6,7-dihydro-5H-pyrrolo[3,4-b]pyridin-2-yl)benzonitrile] | – | – | – | –
7 | 10 to 100 | 0.1 to 10 | 100 to 2000 | 30 to 100 | N#Cc1cccc(F)c1-c1cc(-n2ccc(N3CC[C@H](O)C3)n2)c2c(n1)CNC2=O [I-79, (S)-3-fluoro-2-(4-(3-(3-hydroxypyrrolidin-1-yl)-1H-pyrazol-1-yl)-5-oxo-6,7-dihydro-5H-pyrrolo[3,4-b]pyridin-2-yl)benzonitrile] | – | – | – | –
8 | 10 to 100 | 0.1 to 10 | > 2000 | 100 to 2000 | N#Cc1cccc(F)c1-c1cc(-n2ccc(N3CCCOCC3)n2)c2c(n1)CNC2=O [I-83, 2-(4-(3-(1,4-oxazepan-4-yl)-1H-pyrazol-1-yl)-5-oxo-6,7-dihydro-5H-pyrrolo[3,4-b]pyridin-2-yl)-3-fluorobenzonitrile] | – | – | – | –
9 | 0.1 to 10 | 0.009 to 0.1 | 100 to 2000 | 30 to 100 | N#Cc1cccc(F)c1-c1cc(-n2ccc(N3CCCC(N)(C(F)(F)F)C3)n2)c2c(n1)CNC2=O (stereo not drawn) [I-84, 2-(4-(3-(3-amino-3-(trifluoromethyl)piperidin-1-yl)-1H-pyrazol-1-yl)-5-oxo-6,7-dihydro-5H-pyrrolo[3,4-b]pyridin-2-yl)-3-fluorobenzonitrile] | – | – | – | –
10 | – | 0.1 to 10 | > 2000 | 30 to 100 | CO[C@H]1CN(c2ccn(-c3cc(-c4c(F)cccc4C#N)nc4c3C(=O)NC4)n2)C[C@H]1O [I-153, 3-fluoro-2-(4-(3-((3R,4S)-3-hydroxy-4-methoxypyrrolidin-1-yl)-1H-pyrazol-1-yl)-5-oxo-6,7-dihydro-5H-pyrrolo[3,4-b]pyridin-2-yl)benzonitrile] | – | – | – | –

The next lines start with the compound.

Row | Compound | Ki (JAK2) [nM] | Ki (TYK2) [nM] | EC50 ([1]; Homo sapiens, PBMC, 20 min) [nM] | EC50 ([2]; Homo sapiens, PBMC, 0.5 h) [nM] | EC50 ([1]; 20 minutes) [nM] | EC50 [2] [nM] | EC50 ([1]; 20 min) [nM] | EC50 ([2]; 0.5 h) [nM]
11 | N#Cc1cccc(F)c1-c1cc(-n2ccc(N3CCOCC3)n2)c2c(n1)CNC2=O [I-4, 3-fluoro-2-(4-(3-morpholino-1H-pyrazol-1-yl)-5-oxo-6,7-dihydro-5H-pyrrolo[3,4-b]pyridin-2-yl)benzonitrile] | 10 to 100 | 0.1 to 10 | > 2000 | 100 to 2000 | – | – | – | –
12 | CN1CCN(c2ccn(-c3cc(-c4c(F)cccc4C#N)nc4c3C(=O)NC4)n2)CC1 [I-6, 3-fluoro-2-(4-(3-(4-methylpiperazin-1-yl)-1H-pyrazol-1-yl)-5-oxo-6,7-dihydro-5H-pyrrolo[3,4-b]pyridin-2-yl)benzonitrile] | 0.1 to 10 | 0.1 to 10 | > 2000 | 100 to 2000 | – | – | – | –
13 | CC(C)n1ccc(-c2cc(-c3c(F)cccc3C#N)nc3c2C(=O)NC3)n1 [I-57, 3-fluoro-2-(4-(1-isopropyl-1H-pyrazol-3-yl)-5-oxo-6,7-dihydro-5H-pyrrolo[3,4-b]pyridin-2-yl)benzonitrile] | 100 to 1000 | 0.1 to 10 | 100 to 2000 | 100 to 2000 | – | – | – | –
14 | N#Cc1cccc(F)c1-c1cc(-n2ccc(N3CCC(N4CCOCC4)CC3)n2)c2c(n1)CNC2=O [I-59, 3-fluoro-2-(4-(3-(4-morpholinopiperidin-1-yl)-1H-pyrazol-1-yl)-5-oxo-6,7-dihydro-5H-pyrrolo[3,4-b]pyridin-2-yl)benzonitrile] | 0.1 to 10 | 0.1 to 10 | – | – | 100 to 2000 | 100 to 2000 | – | –
15 | N#Cc1cccc(F)c1-c1cc(-n2ccc(NCCN3CCOCC3)n2)c2c(n1)CNC2=O [I-63, 3-fluoro-2-(4-(3-((2-morpholinoethyl)amino)-1H-pyrazol-1-yl)-5-oxo-6,7-dihydro-5H-pyrrolo[3,4-b]pyridin-2-yl)benzonitrile] | 10 to 100 | 0.1 to 10 | – | – | – | – | 100 to 2000 | 100 to 2000
16 | N#Cc1cccc(F)c1-c1cc(-n2ccc(N3CCCC(O)C3)n2)c2c(n1)CNC2=O (stereo not drawn) [I-65, 3-fluoro-2-(4-(3-(3-hydroxypiperidin-1-yl)-1H-pyrazol-1-yl)-5-oxo-6,7-dihydro-5H-pyrrolo[3,4-b]pyridin-2-yl)benzonitrile] | 10 to 100 | 0.1 to 10 | 100 to 2000 | 30 to 100 | – | – | – | –
17 | N#Cc1cccc(F)c1-c1cc(-n2ccc(N3CCC(O)C3)n2)c2c(n1)CNC2=O (stereo not drawn) [I-76, 3-fluoro-2-(4-(3-(3-hydroxypyrrolidin-1-yl)-1H-pyrazol-1-yl)-5-oxo-6,7-dihydro-5H-pyrrolo[3,4-b]pyridin-2-yl)benzonitrile] | 0.1 to 10 | 0.009 to 0.1 | 100 to 2000 | 30 to 100 | – | – | – | –
18 | N#Cc1cccc(F)c1-c1cc(-n2ccc(N3CC[C@@H](O)C3)n2)c2c(n1)CNC2=O [I-78, (R)-3-fluoro-2-(4-(3-(3-hydroxypyrrolidin-1-yl)-1H-pyrazol-1-yl)-5-oxo-6,7-dihydro-5H-pyrrolo[3,4-b]pyridin-2-yl)benzonitrile] | 10 to 100 | 0.1 to 10 | 100 to 2000 | 30 to 100 | – | – | – | –
19 | N#Cc1cccc(F)c1-c1cc(-n2ccc(N3CCC[C@](O)(C(F)(F)F)C3)n2)c2c(n1)CNC2=O [I-88, (R)-3-fluoro-2-(4-(3-(3-hydroxy-3-(trifluoromethyl)piperidin-1-yl)-1H-pyrazol-1-yl)-5-oxo-6,7-dihydro-5H-pyrrolo[3,4-b]pyridin-2-yl)benzonitrile] | 10 to 100 | 0.009 to 0.1 | > 2000 | 100 to 2000 | – | – | – | –
